Results from ChEMBL document CHEMBL4840357, “Functionalized Dioxonaphthoimidazoliums: A Redox Cycling Chemotype with Potent Bactericidal Activities against Mycobacterium tuberculosis” (J Med Chem, 2021).
Values after ≈ are worked out from the molar mass of the structure shown.

Each compound was assayed on Mycobacterium tuberculosis variant bovis BCG (assay: Bactericidal activity against Mycobacterium bovis BCG ATCC 35734 incubated for 5 days by broth dilution method). Conditions: ATCC 35734, 120 h, time 5 day, read-out: MBC99.9.
Assay type: functional
`CCCCCCCCn1c2c([n+](C3CCC4(CCCCC4)CC3)c1C)C(=O)c1ccccc1C2=O` showed an MBC of 0.2 µM. `CCCCCCn1c2c([n+](C3CCC4(CCCCC4)CC3)c1C)C(=O)c1ccccc1C2=O` showed an MBC of 0.2 µM.

What follows are compounds tested on Mycobacterium tuberculosis variant bovis BCG (assay: Ratio of MIC for antimycobacterial activity against Mycobacterium bovis BCG ATCC 35734 in absence of glycerol to MIC for antimycobacterial activity against Mycobacterium bovis BCG ATCC 35734 in presence of glycerol). Conditions: not given.
Assay type: functional
In the case of `CCCCCC[n+]1c2c(n(CC(C)C)c1C)C(=O)c1ccccc1C2=O`, the Ratio is reported as under 2. `CCCCCCCC[n+]1c2c(n(CC(C)C)c1C)C(=O)c1ccccc1C2=O` gave a Ratio of under 2.

These compounds were tested on Mycobacterium tuberculosis variant bovis BCG (assay: Antimycobacterial activity against Mycobacterium bovis BCG ATCC 35734 incubated for 5 days by broth dilution method). Conditions: ATCC 35734, 120 h, time 5 day.
Assay type: functional
With `Cc1n(CC(C)C)c2c([n+]1C1CC1)C(=O)c1ccccc1C2=O` the MIC90 was 6 µM. With `CCCCCn1c(C)nc2c1C(=O)c1ccccc1C2=O` the MIC90 was 39 µM (≈ 11 µg/mL). Compound `CCCCn1c2c([n+](CCC3CCCCC3)c1C)C(=O)c1ccccc1C2=O` has an MIC90 of 0.37 µM. With `CCCCCCCCCn1c2c([n+](CCCCCCCCC)c1C)C(=O)c1ccncc1C2=O` the MIC90 was 2.6 µM. With `CC[n+]1c2c(n(C)c1C)C(=O)c1ccccc1C2=O` the MIC90 was 22 µM. In the case of `CCn1c2c([n+](C3CC3)c1C)C(=O)c1ccccc1C2=O`, the MIC90 is reported as 15 µM. `Cc1n(C(C)C)c2c([n+]1C(C)C)C(=O)c1ccccc1C2=O` gave an MIC90 of 25 µM. With `CCCCCCn1c2c([n+](C(C)CC)c1C)C(=O)c1ccccc1C2=O` (stereo not drawn) the MIC90 was 0.66 µM. `NNC(=O)c1ccncc1` [ISONIAZID] gave an MIC50 of 1.6 µM (≈ 0.219 µg/mL). With `Cc1n(C2CC2)c2c([n+]1C1CC1)C(=O)c1ccccc1C2=O` the MIC90 was 37 µM. Work on `CCCCCCn1c2c([n+](CCCCCC)c1C)C(=O)c1cccnc1C2=O` yielded an MIC90 of 2.3 µM. `CCCCCC[n+]1c2c(n(CC(C)C)c1C)C(=O)c1ccccc1C2=O` gave an MIC50 of 0.18 µM and an MIC90 of 0.3 µM. In the case of `CCCn1c2c([n+](CCC)c1C)C(=O)c1ccccc1C2=O`, the MIC90 is reported as 25 µM. `CCCCCCn1c2c([n+](CCCCCC)c1CC)C(=O)c1ccccc1C2=O` showed an MIC90 of 0.52 µM. `CCCCCCCCn1c(C)[n+](CCCC)c2ccccc21` showed an MIC90 of over 50 µM. Compound `CCCCCCCCCCn1c2c([n+](C(C)CC)c1C)C(=O)c1ccccc1C2=O` (stereo not drawn) has an MIC90 of 0.52 µM. `CCCCn1c2c([n+](CC)c1C)C(=O)c1ccccc1C2=O` showed an MIC90 of 7.7 µM. `CCn1c(C)nc2c1C(=O)c1ccccc1C2=O` gave an MIC90 of over 50 µM. `CCCCn1c2c([n+](CC3CCCCC3)c1C)C(=O)c1ccccc1C2=O` gave an MIC90 of 0.35 µM. Work on `CCCCCCCCn1c2c([n+](C(C)CC)c1C)C(=O)c1ccccc1C2=O` (stereo not drawn) yielded an MIC90 of 0.46 µM. `CCCCCCCCCC[n+]1c2c(n(CC(C)C)c1C)C(=O)c1ccccc1C2=O` gave an MIC90 of 0.36 µM. `CCCCCCCCn1c(C)nc2ccccc21` was tested, and the MIC90 was 23 µM (≈ 5.62 µg/mL). With `CCC[n+]1c2c(n(CC(C)C)c1C)C(=O)c1ccccc1C2=O` the MIC90 was 3 µM. Compound `CCCCCCCCCCCCn1c2c([n+](CCCCCCCCCCCC)c1C)C(=O)c1ccccc1C2=O` has an MIC90 of 4.8 µM. `CCCCCCCCCCn1c2c([n+](CCCCCCCCCC)c1C)C(=O)c1ccccc1C2=O` gave an MIC90 of 3.1 µM. With `Cc1n(C)c2c([n+]1C1CC1)C(=O)c1ccccc1C2=O` the MIC90 was 34 µM. `CCCC[n+]1c2c(n(CC(C)C)c1C)C(=O)c1ccccc1C2=O` gave an MIC90 of 1.5 µM. In the case of `CCCCCCCCn1c2c([n+](CCCCC)c1C)C(=O)c1ccccc1C2=O`, the MIC90 is reported as 0.33 µM. With `Cc1nc2c(n1C(C)C)C(=O)c1ccccc1C2=O` the MIC90 was over 50 µM. Compound `CCCCn1c2c([n+](C3CCCCC3)c1C)C(=O)c1ccccc1C2=O` has an MIC90 of 1.4 µM. With `CCCCn1c2c([n+](C3CCCCCCC3)c1C)C(=O)c1ccccc1C2=O` the MIC90 was 0.6 µM. `CCCCCCCC[n+]1c2c(n(CCCC)c1CC)C(=O)c1ccccc1C2=O` was tested, and the MIC90 was 0.49 µM. Work on `Cc1n(C)c2c([n+]1C)C(=O)c1ccccc1C2=O` yielded an MIC90 of 40 µM. Work on `CCCCn1c2c([n+](CCCC)c1C)C(=O)c1ccncc1C2=O` yielded an MIC90 of 21 µM. In the case of `CCCC[n+]1c2c(n(CCC)c1C)C(=O)c1ccccc1C2=O`, the MIC90 is reported as 2.3 µM. In the case of `CCCCCCCCCCCCn1c(C)nc2ccccc21`, the MIC90 is reported as 10 µM (≈ 3 µg/mL). Work on `CCCCCCCCCCn1c(C)nc2ccccc21` yielded an MIC90 of 15 µM (≈ 4.09 µg/mL). `CCCCn1c(C)nc2c1C(=O)c1ccccc1C2=O` was tested, and the MIC90 was over 50 µM. Work on `CC[n+]1c2c(n(CC(C)C)c1C)C(=O)c1ccccc1C2=O` yielded an MIC90 of 4.9 µM. Compound `CCCn1c2c([n+](C3CC3)c1C)C(=O)c1ccccc1C2=O` has an MIC90 of 17 µM. `CCCCn1c2c([n+](CCCN3CCOCC3)c1C)C(=O)c1ccccc1C2=O` gave an MIC90 of 13 µM. Compound `CCCCCCCCn1c2c([n+](CCCCCC)c1C)C(=O)c1ccccc1C2=O` has an MIC90 of 0.34 µM. In the case of `CCC(C)[n+]1c2c(n(C3CC3)c1C)C(=O)c1ccccc1C2=O` (stereo not drawn), the MIC90 is reported as 13 µM. For `CCCCn1c2c([n+](C3CC3)c1C)C(=O)c1ccccc1C2=O`, the MIC90 was 6.9 µM. With `CCCCn1c2c([n+](Cc3ccccc3)c1C)C(=O)c1ccccc1C2=O` the MIC90 was 0.43 µM. `CCCCCCCCn1c2c([n+](CCCCCCCC)c1C)C(=O)c1ccncc1C2=O` showed an MIC90 of 1.1 µM. `CCCn1c2c([n+](CC)c1C)C(=O)c1ccccc1C2=O` was tested, and the MIC90 was 8.3 µM. Work on `CCCCn1c2c([n+](C(C)CC)c1C)C(=O)c1ccccc1C2=O` (stereo not drawn) yielded an MIC90 of 3.1 µM. `CCCCCCCCn1c2c([n+](CCCC)c1C)C(=O)c1cccnc1C2=O` showed an MIC90 of 3.3 µM. Work on `CCCCCC[n+]1c2c(n(CCCC)c1C)C(=O)c1ccccc1C2=O` yielded an MIC90 of 0.43 µM. Work on `Cc1n(C(C)C)c2c([n+]1C1CC1)C(=O)c1ccccc1C2=O` yielded an MIC90 of 35 µM. For `CCCCCCCCCCn1c(C)nc2c1C(=O)c1ccccc1C2=O`, the MIC90 was 47 µM (≈ 16.6 µg/mL). For `Cc1n(CC(C)C)c2c([n+]1C(C)C)C(=O)c1ccccc1C2=O`, the MIC90 was 5.6 µM. Compound `CCC(C)[n+]1c2c(n(CC(C)C)c1C)C(=O)c1ccccc1C2=O` (stereo not drawn) has an MIC90 of 3.6 µM. Compound `CCCCCCn1c2c([n+](CCCCCC)c1C)C(=O)c1ccncc1C2=O` has an MIC90 of 5.4 µM. With `CCCCCCCCCCCC[n+]1c2c(n(CC(C)C)c1C)C(=O)c1ccccc1C2=O` the MIC90 was 0.54 µM. `CCCCCCCCn1c2c([n+](C3CCC4(CCCCC4)CC3)c1C)C(=O)c1ccccc1C2=O` was tested, and the MIC50 was 0.11 µM and the MIC90 was 0.2 µM. For `CCCC[n+]1c2c(n(C(C)C)c1C)C(=O)c1ccccc1C2=O`, the MIC90 was 3.1 µM. Work on `CCCCn1c2c([n+](CCCC)c1C)C(=O)c1cccnc1C2=O` yielded an MIC90 of 12 µM. With `CCC(C)[n+]1c2c(n(CC)c1C)C(=O)c1ccccc1C2=O` (stereo not drawn) the MIC90 was 11 µM. `CCCCCCCCn1c2c([n+](CCCCCCCC)c1C)C(=O)c1cccnc1C2=O` showed an MIC90 of 10 µM. `CCCCn1c2c([n+](CCCC)c1C)C(=O)c1ccccc1C2=O` showed an MIC90 of 1.9 µM. Compound `Cc1n(CC(C)C)c2c([n+]1C)C(=O)c1ccccc1C2=O` has an MIC90 of 6.3 µM. Work on `CCCn1c2c([n+](C(C)CC)c1C)C(=O)c1ccccc1C2=O` (stereo not drawn) yielded an MIC90 of 5.5 µM. For `CCC(C)[n+]1c2c(n(C(C)C)c1C)C(=O)c1ccccc1C2=O` (stereo not drawn), the MIC90 was 11 µM. With `CCCn1c2c([n+](C(C)C)c1C)C(=O)c1ccccc1C2=O` the MIC90 was 21 µM. For `Cc1n(CC(C)C)c2c([n+]1CC(C)C)C(=O)c1ccccc1C2=O`, the MIC90 was 1.9 µM. `CCn1c2c([n+](CC)c1C)C(=O)c1ccccc1C2=O` gave an MIC90 of 17 µM. `CCC(C)[n+]1c2c(n(C)c1C)C(=O)c1ccccc1C2=O` (stereo not drawn) gave an MIC90 of 13 µM. With `CCCCn1c(C)nc2ccccc21` the MIC90 was over 50 µM. `CC[n+]1c2c(n(C(C)C)c1C)C(=O)c1ccccc1C2=O` showed an MIC90 of 15 µM. In the case of `CCCn1c(C)nc2c1C(=O)c1ccccc1C2=O`, the MIC90 is reported as over 50 µM. `Cc1nc2c(n1C)C(=O)c1ccccc1C2=O` gave an MIC90 of over 50 µM. `Cc1n(C)c2c([n+]1C(C)C)C(=O)c1ccccc1C2=O` gave an MIC90 of 6.2 µM. In the case of `CCCCCCn1c2c([n+](C3CCC4(CCCCC4)CC3)c1C)C(=O)c1ccccc1C2=O`, the MIC90 is reported as 0.15 µM. `CC(C)/N=c1\cc2n(-c3ccc(Cl)cc3)c3ccccc3nc-2cc1Nc1ccc(Cl)cc1` [CLOFAZIMINE] gave an MIC50 of 0.2 µM (≈ 0.0947 µg/mL) and an MIC90 of 0.4 µM (≈ 0.189 µg/mL). `CCC[n+]1c2c(n(C)c1C)C(=O)c1ccccc1C2=O` gave an MIC90 of 18 µM. `CCCC[n+]1c2c(n(C)c1C)C(=O)c1ccccc1C2=O` showed an MIC90 of 6.7 µM. For `CCCCCCCC[n+]1c2c(n(CC(C)C)c1C)C(=O)c1ccccc1C2=O`, the MIC50 was 0.14 µM and the MIC90 was 0.26 µM. Compound `CCCCCCCCn1c2c([n+](CCCCCCCC)c1C)C(=O)c1ccccc1C2=O` has an MIC90 of 0.88 µM.
